Laboratory results reported in paper PMC9138567, “Strategy to Enhance Anticancer Activity and Induced Immunogenic Cell Death of Antimicrobial Peptides by Using Non-Nature Amino Acid Substitutions” (Biomedicines, 2022).
Non-standard residues stand in square brackets, D forms with d. Residues, ends and D or L forms follow the SMILES beside them. Bip = N[C@@H](Cc1ccc(-c2ccccc2)cc1)C(=O)O; Dip = N[C@H](C(=O)O)C(c1ccccc1)c1ccccc1; 2Nal = N[C@@H](Cc1ccc2ccccc2c1)C(=O)O

What was measured:
[1] = tested on: A549 adenocarcinomic alveolar basal epithelial cells; type: cell-based; conditions: 24 h
Procedure: (§1) The three non-small cell lung cancer cell lines, H1975, PC 9, A549, and oral squamous cell carcinoma cell line OECM-1 were cultured in RPMI 1640 medium supplemented with 10% fetal bovine serum, 2 mM L-glutamine and 1% penicillin/ streptomycin. The oral cancer cell line C9 was cultured in DMEM with 10% fetal bovine serum, 2 mM L-glutamine, and 1% penicillin/ streptomycin.
(§2) The MTT assay was applied for cell viability test according to previous protocol. […] Medium treated with PBS served as control group. […] After medium was removed, 100 µL DMSO was added to dissolve the formazan crystal. Absorbance was measured at 570 nm using a microplate reader (TECAN Sunrise ELISA Reader).

[2] = tested on: PC 9 non-small cell lung cancer cells with EGFR mutation; type: cell-based; conditions: 24 h
Procedure: as §1, §2

[3] = tested on: OECM-1 gingival epidermoid carcinoma cells; type: cell-based; conditions: 24 h
Procedure: as §1, §2

[4] = tested on: H1975 non-small cell lung carcinoma cells; type: cell-based; conditions: 24 h
Procedure: as §1, §2

[5] = tested on: C9 oral squamous cell carcinoma cells; type: cell-based; conditions: 24 h
Procedure: as §1, §2

PC 9 cells [6] = assay: Cytochrome c release, ELISA of supernatant; type: cell-based; conditions: PC 9, 2× IC50, supernatant ELISA; for cytochrome c release, maximal value: highest over 0.5-4 h time course (Bip-P-113: at 4 h); for cytochrome c release, minimum value: lowest over 0.5-4 h time course (Bip-P-113: at 30 min)
Procedure: PC 9 cells were seeded with 10,000 cells/well in the 96-well plate and allowed to adhere for 48 h and then treated with Nal-P-113, Bip-P-113, and Dip-P-113 at 2× IC50 for 0.5, 1, 1.5, 2, and 4 h. Untreated cells were used as a control group. Supernatants were collected after centrifugation at 16,000× g for 10 min. Samples were analyzed using the Quantikine ELISA Rat/ Mouse Cytochrome c Immunoassay (R & D Systems, Minneapolis, MN, USA) according to the manufacturer’s protocol. The optical density at the wavelength of 450 nm of each well was determined using the microplate reader (TECAN Sunrise ELISA Reader).

human fibroblasts (HFW) = conditions: MTT, 100 μg/mL; cited from earlier work
Procedure: The toxicity of the peptides was determined previously by measuring cell death using MTT assays against human fibroblasts (HFW).

PC 9 cell line = type: cell-based; conditions: for cell survival rate: 4 h; for cells killed: PC 9, 2× IC50, within 2 h, MTT
Procedure: A total of 5000 cells were incubated with Nal-P-113, Bip-P-113, and Dip-P-113 at 2× IC50 for 0.5, 1, 2, 3, and 4 h. After treatment, the MTT solution was further incubated for 3 h. Absorbance was measured at 570 nm on the microplate reader (TECAN Sunrise ELISA Reader) after the dissolution of the formazan crystal in 100 µL DMSO solution. The cell survival rate was calculated as aforementioned for cell viability assay.

PC 9 cells [7] = assay: Extracellular HMGB1 release, Western blot; type: cell-based
Procedure: The PC 9 cells were seeded at the density of 25,000 cells/well and left to adhere for 48 h. Cells were treated with Nal-P-113, Bip-P-113, and Dip-P-113 at 2× IC50 for 1, 2, and 4 h. After treatment of the peptides, the supernatant and lysate of the cells were collected separately for further experiments. The supernatant was collected after centrifugation at the speed of 1400× g. The cell lysate was washed twice using PBS before the sonication of the pellet using a bio-disruptor, and the disrupted pellet was centrifuged again for 10 min under 14,000 rpm at 4 °C. The concentration of the samples was quantified using the Bradford assay. Both supernatants and cell lysate were loaded and run on the sodium dodecyl sulfate polyacrylamide gel electrophoresis (SDS-PAGE) and were then electro transferred to a polyvinylidene difluoride (PVDF) membrane (Merck-Millipore, Burlington, MA, USA) in an electro-blot system, 30 V, 400 mA, for 75 min. The membrane was incubated in blocking buffer (5% skim milk, TBST buffer) for 1 h at room temperature and washed in TBST buffer three times. The anti-HMGB1 antibody (Abcam, Cambridge, UK, ab18256) was incubated overnight at 4 °C in the dilution ratio of 1:1000. The secondary antibody of a rabbit (diluted in 1:10,000) was incubated following rinsing with PBST three times for 2 h the next day at room temperature before being developed using a luminol reagent and imaged by a detected system (ImageQuant LAS 4000 mini).

PC 9 cells [8] = assay: JC-1 staining (mitochondrial membrane potential); type: cell-based; conditions: PC 9, 2× IC50, 120 min, serum-free RPMI, fluorescence microscopy
Procedure: PC 9 cells were seeded at 40,000 cells/well in a RPMI medium and allowed to adhere for 24 h. […] The JC-1 dye was added at a final concentration of 1 μg/mL for 45 min. PC 9 cells were observed using the inverted fluorescent microscope Zeiss equipped with a 20× oil objective lens (Carl Zeiss, Jena, Germany). The experiments were repeated three times independently.

PC 9 cells [9] = assay: Extracellular ATP release, luciferin-luciferase assay; type: cell-based; conditions: for treatment time of highest ATP release (RLU): PC 9, 2× IC50, time points 0.5, 1, 1.5, 2 h, supernatant
Procedure: PC 9 cells were seeded at the density of 10,000 cells/ well in the 96-well plate and allowed to adhere for 48 h. Cells were treated with Nal-P-113, Bip-P-113, and Dip-P-113 at 2× IC50 for 0.5, 1, 1.5, and 2 h. Untreated cells were served as the control group. After being treated for different time points (0.5, 1, 1.5, and 2 h), the supernatant of cells was analyzed using the ENLITEN ATP luciferase assay kit (Promega, Madison, WI, USA). The level of extracellular ATP chemiluminescence was measured using the Wallac VICTOR 3 Multilabel plate reader (PerkinElmer, Shelton, CT, USA).

PC 9 cells [10] = assay: Propidium iodide/Hoechst 33342 staining (plasma membrane integrity); type: cell-based; conditions: PC 9, 2× IC50, 120 min, serum-free RPMI, fluorescence microscopy
Procedure: To examine the membranolytic activities of peptides, the PI/Hoechst 33342 staining was performed in this study. The PI dye was used to stain damaged/dead cells, and Hoechst 33342 was used to specifically stain the nuclei of living cells. PC 9 cells were seeded at 20,000 cells/well in a RPMI medium and allowed to adhere for 48 h. Then, the cells were replaced with serum-free RPMI medium and then treated with 2× IC50 peptides at 37 °C for 120 min. Then, the PI and Hoechst 33342 were added at a final concentration of 1 μg/mL for 20 min. PC 9 cells were observed using the inverted fluorescent microscope Zeiss equipped with a 40× oil objective lens (Carl Zeiss, Jena, Germany). The experiments were repeated three times independently.

CC(=O)N[C@@H](C)C(=O)N[C@@H](CCCCN)C(=O)N[C@@H](CCCNC(=N)N)C(=O)N[C@@H](Cc1ccc(-c2ccccc2)cc1)C(=O)N[C@@H](Cc1ccc(-c2ccccc2)cc1)C(=O)NCC(=O)N[C@@H](Cc1ccc(O)cc1)C(=O)N[C@@H](CCCCN)C(=O)N[C@@H](CCCNC(=N)N)C(=O)N[C@@H](CCCCN)C(=O)N[C@@H](Cc1ccccc1)C(=O)N[C@@H](Cc1ccc(-c2ccccc2)cc1)C(N)=O [Bip-P-113] (Ac-AKR[Bip][Bip]GYKRKF[Bip]-NH2)
IC50 [1]: 48.4 µM
IC50 [2]: 64.2 µM
IC50 [3]: 42.5 µM
IC50 [4]: 63.6 µM
IC50 [5]: 42 µM
cytochrome c release, maximal value (PC 9 cells [6]): ~15 ng/mL
cytochrome c release, minimum value (PC 9 cells [6]): 3 ng/mL
cell death (human fibroblasts (HFW)): less than 10%
cell survival rate (PC 9 cell line): below 50%
cells killed (PC 9 cell line): more than 80%
HMGB1 protein in supernatant (PC 9 cells [7]; PC 9, 2× IC50, 1 h treatment): No HMGB1 protein was observed
HMGB1 protein in supernatant (PC 9 cells [7]; PC 9, 2× IC50, after 2 and 4 h): can hardly be detected
mitochondrial membrane potential (JC-1) (PC 9 cells [8]): induced changes of the mitochondrial membrane potential
ATP release compared among the peptides (PC 9 cells [9]; PC 9, 2× IC50, at the 0.5 h peak): lowest ATP release
treatment time of highest ATP release (RLU) (PC 9 cells [9]): 0.5 h
plasma membrane integrity (PI entry) (PC 9 cells [10]): cause damage to the plasma membrane integrity

CC(=O)N[C@@H](C)C(=O)N[C@@H](CCCCN)C(=O)N[C@@H](CCCNC(=N)N)C(=O)N[C@H](C(=O)N[C@H](C(=O)NCC(=O)N[C@@H](Cc1ccc(O)cc1)C(=O)N[C@@H](CCCCN)C(=O)N[C@@H](CCCNC(=N)N)C(=O)N[C@@H](CCCCN)C(=O)N[C@@H](Cc1ccccc1)C(=O)N[C@H](C(N)=O)C(c1ccccc1)c1ccccc1)C(c1ccccc1)c1ccccc1)C(c1ccccc1)c1ccccc1 [Dip-P-113] (Ac-AKR[Dip][Dip]GYKRKF[Dip]-NH2)
IC50 [1]: 96.4 µM
IC50 [2]: 71.5 µM
IC50 [3]: 62.9 µM
IC50 [5]: 67.9 µM
cytochrome c release, maximal value (PC 9 cells [6]): around 3.5 ng/mL
cytochrome c release, minimum value (PC 9 cells [6]): lower than 2 ng/mL
cell death (human fibroblasts (HFW)): less than 10%
cell survival rate (PC 9 cell line): around 60%
HMGB1 protein in supernatant (PC 9 cells [7]; PC 9, 2× IC50, 1 h treatment): No HMGB1 protein was observed
HMGB1 protein in supernatant (PC 9 cells [7]; PC 9, 2× IC50, after 2 and 4 h): can clearly be seen
mitochondrial membrane potential (JC-1) (PC 9 cells [8]): induced changes of the mitochondrial membrane potential
treatment time of highest ATP release (RLU) (PC 9 cells [9]): 0.5 h
plasma membrane integrity (PI entry) (PC 9 cells [10]): cause damage to the plasma membrane integrity

CC(=O)N[C@@H](C)C(=O)N[C@@H](CCCCN)C(=O)N[C@@H](CCCNC(=N)N)C(=O)N[C@@H](Cc1ccc2ccccc2c1)C(=O)N[C@@H](Cc1ccc2ccccc2c1)C(=O)NCC(=O)N[C@@H](Cc1ccc(O)cc1)C(=O)N[C@@H](CCCCN)C(=O)N[C@@H](CCCNC(=N)N)C(=O)N[C@@H](CCCCN)C(=O)N[C@@H](Cc1ccccc1)C(=O)N[C@@H](Cc1ccc2ccccc2c1)C(N)=O [Nal-P-113] (Ac-AKR[2Nal][2Nal]GYKRKF[2Nal]-NH2)
IC50 [1]: 38.2 µM
IC50 [2]: 28.1 µM
IC50 [3]: 25.9 µM
IC50 [4]: 58.3 µM
IC50 [5]: 21.4 µM
cytochrome c release, maximal value (PC 9 cells [6]): around 3.5 ng/mL
cytochrome c release, minimum value (PC 9 cells [6]): lower than 2 ng/mL
cell death (human fibroblasts (HFW)): less than 10%
cell survival rate (PC 9 cell line): below 50%
cells killed (PC 9 cell line): more than 80%
HMGB1 protein in supernatant (PC 9 cells [7]; PC 9, 2× IC50, 1 h treatment): No HMGB1 protein was observed
HMGB1 protein in supernatant (PC 9 cells [7]; PC 9, 2× IC50, after 2 and 4 h): can clearly be seen
mitochondrial membrane potential (JC-1) (PC 9 cells [8]): induced changes of the mitochondrial membrane potential
treatment time of highest ATP release (RLU) (PC 9 cells [9]): 0.5 h
plasma membrane integrity (PI entry) (PC 9 cells [10]): cause damage to the plasma membrane integrity

CC(=O)N[C@@H](C)C(=O)N[C@@H](CCCCN)C(=O)N[C@@H](CCCNC(=N)N)C(=O)N[C@@H](Cc1c[nH]cn1)C(=O)N[C@@H](Cc1c[nH]cn1)C(=O)NCC(=O)N[C@@H](Cc1ccc(O)cc1)C(=O)N[C@@H](CCCCN)C(=O)N[C@@H](CCCNC(=N)N)C(=O)N[C@@H](CCCCN)C(=O)N[C@@H](Cc1ccccc1)C(=O)N[C@@H](Cc1c[nH]cn1)C(N)=O [P-113, reference compound] (Ac-AKRHHGYKRKFH-NH2; N-terminus and C-terminus assumed)
IC50 [2]: > 200 µM

CC(=O)N[C@@H](C)C(=O)N[C@@H](CCCCN)C(=O)N[C@@H](CCCNC(=N)N)C(=O)N[C@@H](Cc1ccccc1)C(=O)N[C@@H](Cc1ccccc1)C(=O)NCC(=O)N[C@@H](Cc1ccc(O)cc1)C(=O)N[C@@H](CCCCN)C(=O)N[C@@H](CCCNC(=N)N)C(=O)N[C@@H](CCCCN)C(=O)N[C@@H](Cc1ccccc1)C(=O)N[C@@H](Cc1ccccc1)C(N)=O [Phe-P-113] (Ac-AKRFFGYKRKFF-NH2)
IC50 [1]: 99.1 µM
IC50 [2]: 173 µM
IC50 [3]: 120 µM
IC50 [5]: 80.5 µM
